Each structure is given as a SMILES string.

We go through 1 compound from patent publication US20190117651A1, “COMPOSITION FOR STIMULATING SIRTUIN ACTIVITY” (Bitop AG, priority 2016, published 2019).

The test has as its system sirtuin activity in the lung tissue. Nature of the test: repeated application of a solution containing ectoine into the lungs of rats; sirtuin activity in the lung tissue. Format: in vivo. From the text:
The composition proposed by the invention can generally be adopted for the treatment and/or prophylaxis of aging symptoms and for influencing self-renewal processes, cell differentiation and cell proliferation. The composition is of particular importance in the treatment of aging symptoms of the lung, especially of the senile emphysema. This is characterized by the degeneration of the alveolar structures in the lungs, which leads to a reduction of the lung surface which is available for the exchange of gas. In such cases, the patient finds it hard to breathe properly. […] The aging of tissue is attributable to an altered gene activity during the self-renewal and cell differentiation processes in (lung) tissue, which is regulated by the accessibility of DNA by histones and is thus also dependent on sirtuins.

As for `CC1=NCC[C@@H](C(=O)O)N1` (stereo in doubt) [ectoine, 2-methyl-1,4,5,6-tetrahydropyrimidine-4-carboxylic acid], the “loss of sirtuin activity in the lung tissue” value is reported as “significant reduction of the loss of sirtuin activity”.
